According to US12458641B2, “NK-3 receptor antagonists for therapeutic or cosmetic treatment of excess body fat” (Ogeda SA, priority 2015, dated 2025):
Several values for one entry are separate records, joined by “and”; a condition that tells them apart may be missing. Equal entries are not always repeated.

Legend:
[1] = rats fed standard chow or high-fat diet (Li et al., 2014); cited from earlier work
[2] = Body weight and BMI in healthy women with normal corpulence; type: in vivo, human; conditions: 60 mg for 21 consecutive days, individual subjects
Method: Healthy women with normal corpulence, i.e. having a BMI ranging from 18.5 to 25 kg/m^2, received 60 mg of compound k-5 for 21 consecutive days.
(§1) The weight was measured at screening which took place between 28 and 2 days before start of dosing (D-28 to D-2), as well as on the follow-up visit planned on D42 (21 days after cessation of study compound intake).

[3] = Multiple ascending dose administration in healthy women: body weight; type: in vivo, human; conditions: for Weight D 42 / Weight Screening: group mean; for Weight D 42: 21 days after last dose; for Weight Screening: before dosing (D-28 to D-2); for Pre vs Post Difference / Pre vs Post Difference (%): screening vs D42
Method: Three Panels A, B, and C, each consisting of 6 healthy women, were randomized to receive different dose level of compound k-5. In those 3 panels, compound k-5 is administered for 21 consecutive days.
Subjects were residential from the day before first dosing (D-1) until Day 24 (=72 hours after the last dose intake on Day 21). Weekly non-residential visits were organized on Day 28, Day 35 (±1 day) and a follow-up visit on Day 42 (±2 days). Ascending multiple doses of compound k-5 were administered in a once-daily regimen for 21 consecutive days. […] Subjects received the trial medication in a q.d. regimen and after a light breakfast.
Subjects were recruited on the basis of their medical history and health status. Especially, subjects meeting all of the following criteria were eligible to participate in this study: • 1) Premenopausal females between 18 and 45 years of age inclusive. • 2) Healthy with no clinically significant abnormalities as determined by medical history, physical examination, blood chemistry assessments, hematologic assessments, coagulation and urinalysis, measurement of vital signs, and ECG. Isolated out-of-range values judged by the physician to be of no clinical significance were allowed. […] Weight Measurement
The weight was measured at screening, which took place between 28 and 2 days before start of dosing (D-28 to D-2), and at the end-of-study visit (D42, i.e. 21 days after cessation of study compound intake).
A two-tailed T-test for paired samples was used to explore the difference between the screening and post-study values for weight.

[4] = 13-week once-daily oral dosing in cynomolgus monkeys: body weight; type: in vivo, cynomolgus monkeys (Macaca fascicularis); conditions: female monkeys, 13 weeks, 50 mg/kg (FIG. 3), vehicle group gained about 12%
From the text: The cynomolgus monkey was selected as a relevant species because of the similarity of nonhuman primates (NHP) to humans. The route of administration is oral consistent with the intended route in humans.
(§2) Sexually-mature (age range of ˜4 years at pre-dose), purpose-bred cynomolgus monkeys (Macaca fascicularis) of Asian origin were used. Sexual maturity was proven by recording of at least two menstrual bleedings (with 20-to-50 days between menstruations) prior to entry into the study.
NHPs were maintained on a standard lab diet of twice-daily offerings of commercial pellets for primates supplemented with fresh fruit and bread. Dietary and environmental enrichment were also provided through the study duration. Animals were housed in a climate (19-25° C.) and humidity (40-70%) controlled environment with artificial lighting controlled automatically to give a cycle of 12 hours light and 12 hours dark.
NHPs were divided into three treatment groups: vehicle control (N=6) and compound k-5 Dose Groups of 10 mg/kg (N=4) and 50 mg/kg (N=6), respectively. All NHPs were dosed once daily (morning) by oral gavage over the 13 week treatment period of the study. The dose vehicle was 0.5% methylcellulose (Methocel® from Colorcon) in water. […]

leptin [5] = assay: 13-week oral dosing in cynomolgus monkeys: serum leptin by ELISA; type: in vivo, cynomolgus monkeys (Macaca fascicularis)
Method: (§3) NHPs were divided into three treatment groups: vehicle control (N=6) and compound k-5 Dose Groups of 10 mg/kg (N=4) and 50 mg/kg (N=6), respectively. All NHPs were dosed once daily (morning) by oral gavage over the 13 week treatment period of the study. The dose vehicle was 0.5% methylcellulose (Methocel® from Colorcon) in water.
All NHPs were subjected to leptin levels measurements. Blood samples were collected at 08 h00 in the morning from overnight-fasted animals on Day-2 prior to dosing (‘pre-dose’), 24 h after the initial dosing, on day 52 of dosing and on day 86 of dosing. Serum samples were derived from these blood samples and stored frozen (−20° C.) until analysis. Leptin concentrations in these serum samples were determined by ELISA assay (Monkey Kit: MyBiosource Cat. N° MBS705354) based upon linear regression analysis against a standard curve.

[6] = Body weight and BMI in overweight women; type: in vivo, human; conditions: 180 mg for 21 consecutive days, individual subjects
Method: Overweight women, i.e. having a BMI ranging from 25 to 30 kg/m^2, received 180 mg of compound k-5 for 21 consecutive days.
as §1

leptin [7] = assay: Plasma leptin level in female rats over the estrous cycle (ELISA, AUC); type: in vivo; conditions: 10 mg/kg oral BID, p<0.05 paired t-test (FIG. 5)
Method: Daily plasma samples were collected each morning from sexually-mature female rats and analyzed for peak estrogen levels (coincident with proestrus) in order to define the timing of the estrous cycle for individual rats. Next, rats were dosed orally BID (i.e. twice a day) with vehicle (0.5% methylcellulose) over a 4-day ‘baseline’ estrous cycle. Plasma samples were collected daily, each morning, and stored frozen prior to analysis for leptin. […] Plasma samples were collected daily, each morning, and stored frozen prior to analysis for leptin. In a single experiment, plasma samples collected daily during both the ‘baseline’ and ‘treatment’ cycles were analyzed in a common experiment by ELISA assay based upon linear regression analysis against a standard curve. Leptin levels over the 4-day estrous cycle were calculated for individual rats by determination of AUC (area-under-the-curve) using credited data analysis software (GraphPad Prism).

leptin [8] = assay: Plasma leptin level in women (placebo-controlled, ELISA); type: in vivo, human; conditions: non-obese premenopausal women; 20, 60 and 180 mg once daily, all dose levels; p<0.05 paired t-test (FIG. 4)
From the text: This was a randomized, double-blind, placebo-controlled study. All subjects provided written informed consent prior to screening for study eligibility. Healthy female volunteers aged 20-45 years with a body mass index of 19-30 kg/m^2 were included. Participants needed to be in good physical health including the presence of a regular ovulatory menstrual cycle and the discontinuation of all hormonal contraceptive methods at least 3 months prior to screening. Three panels of 8 non-obese female volunteers (median BMI of each panel: 22.3, 23.4, 25.2 kg/m^2) each were administered capsules of compound k-5 or matching placebo in a 6:2 ratio for 21 days. Subjects received the study medication in a once daily regimen after a light standardized breakfast. The participants in these panels were synchronized for their menstrual cycle; i.e. the initiation of dosing was always on Day3±2 of the menstrual cycle. The dose levels investigated were 20, 60 and 180 mg of compound k-5. Blood samples were collected on the day prior to dosing as well as on Day 21 (the final day of dosing) and plasma fractions were retained and stored frozen (−20° C.) until analysis. Leptin concentrations in these plasma samples were determined by ELISA assay (Human Leptin Kit: R&D Systems, Cat. N° DLP00) based upon linear regression analysis against a standard curve.

[9] = 13-week oral dosing in cynomolgus monkeys: whole-body DEXA scan (lean mass, bone mineral density, bone mineral content, fat mass); type: in vivo, cynomolgus monkeys (Macaca fascicularis)
Method: as §2, §3
All NHPs were subjected to a body weight measurement and DEXA scan (Dual-energy X-ray absorptiometry, Hologic Dexa QDR® 4000) in the pre-dose phase and in the final week (week-13) of the dosing phase. The measurements were made under ketamine anesthesia with dorbene and antisedan.
The whole body was scanned by DEXA for measurement of lean mass, bone mineral density, bone mineral content and fat mass.

In the case of `CC[C@H](NC(=O)c1c(C)c(-c2ccccc2)nc2ccccc12)c1ccccc1` [SB222200, 3-Methyl-2-phenyl-N-[(1S)-1-phenylpropyl]-4-quinolinecarboxamide], the effect on weight [1] is given as “no effect on weight was observed”.
In the case of `Cc1nsc(-c2nnc3n2CCN(C(=O)c2ccc(F)cc2)[C@@H]3C)n1` [k-5, (R)-(4-fluorophenyl)(8-methyl-3-(3-methyl-1,2,4-thiadiazol-5-yl)-5,6-dihydro-[1,2,4]triazolo[4,3-a]pyrazin-7(8H)-yl)methanone], the “BMI D 42” value ([2]; D42) is reported as 21.45 and 22.95 and 21.39, the BMI screening ([2]; before dosing) is reported as 22.18 and 23.71 and 21.55 and the “Difference” value ([2]; screening vs D42) is reported as -2.2 kg and -2 kg and -0.5 kg. For the same compound, the “Difference (%)” value ([2]; screening vs D42) was −3.43% and −3.28% and −0.74%, the “Weight D 42” value ([2]; women BMI 18.5 to 25 kg/m^2, D42) was 64.2 kg and 61 kg and 67.8 kg and the “Weight Screening” value ([2]; women BMI 18.5 to 25 kg/m^2, before dosing) was 66.4 kg and 63 kg and 68.3 kg. For the same compound, the “Weight D 42” value ([3]; 20 mg once daily for 21 days) was 58.0 kg, the “Weight Screening” value ([3]; 20 mg once daily for 21 days) was 58.2 kg and the “Pre vs Post Difference” value ([3]; 20 mg once daily for 21 days) was -0.13 kg. The “Pre vs Post Difference (%)” value ([3]; 20 mg once daily for 21 days) was −0.23%, the “Weight D 42” value ([3]; 60 mg once daily for 21 days) was 71.9 kg and the “Weight Screening” value ([3]; 60 mg once daily for 21 days) was 73.3 kg. For the same compound, the “Pre vs Post Difference” value ([3]; 60 mg once daily for 21 days) was -1.38 kg, the “Pre vs Post Difference (%)” value ([3]; 60 mg once daily for 21 days) was −1.92% and the “Weight D 42” value ([3]; 180 mg once daily for 21 days) was 66.9 kg. The “Weight Screening” value ([3]; 180 mg once daily for 21 days) was 69.0 kg, the “Pre vs Post Difference” value ([3]; 180 mg once daily for 21 days) was -2.10 kg and the “Pre vs Post Difference (%)” value ([3]; 180 mg once daily for 21 days) was −3.14%. The “weight lowering with increasing doses” value ([3]; 20, 60, 180 mg once daily for 21 days, healthy women) was “dose-dependent trend exists towards weight lowering”, the “change in mean weight over the course of the dosing phase” value [4] was “no significant change” and the “serum leptin levels 24-hours after initial dosing” value (leptin [5]; 50 mg/kg oral (FIG. 2), relative to pre-dose and to time-matched vehicle group) was “significantly increases”. For the same compound, the “serum leptin levels over the duration of dosing relative to vehicle-treated group” value (leptin [5]; 50 mg/kg oral once daily, up to day 86 (FIG. 2)) was “persistently higher”, the “BMI D 42” value ([6]; D42) was 26.79 and 26.17 and 26.21 and the BMI screening ([6]; before dosing) was 27.94 and 27.81 and 27.15. The “Difference” value ([6]; screening vs D42) was -2.8 kg and -4.2 kg and -3 kg, the “Difference (%)” value ([6]; screening vs D42) was −4.29% and −6.27% and −3.57% and the “Weight Screening” value ([6]; overweight women BMI 25 to 30 kg/m^2, before dosing) was 68 kg and 71.2 kg and 87 kg. For the same compound, the “Weight D 42” value ([6]; overweight women, D42) was 65.2 kg and 67 kg and 84 kg, the “plasma leptin levels over the 4-day estrous cycle (AUC) versus baseline cycle” value (leptin [7]) was “increases plasma leptin levels” and the “leptin levels following 21 days of treatment relative to pre-dose levels” value (leptin [8]) was “increases serum leptin levels”. The “% fat/total mass, treated versus vehicle-treated group” value ([9]; 50 mg/kg, week 13, N=6/group) was “statistically-significant difference” and the “change in % fat/total mass over the 13-week treatment period (DEXA)” value ([9]; 10 and 50 mg/kg dose groups, pre-dose vs week 13, increased in the vehicle group (FIG. 1)) was “no significant change”.
